Experimental data reported in PMC4097363, “Trace amines inhibit insect odorant receptor function through antagonism of the co-receptor subunit” (F1000Research, 2014).
Like-named read-outs stand apart in the source and are kept apart here.

What was measured:
Cqui\Orco [1] = biological target: T1, Cqui\Orco (Culex quinquefasciatus, UniProt Q309I4); assay: Antagonism of OLC12 activation of Orco in Xenopus oocytes; type: cell-based; conditions: for inhibition at 100 µM: read-out: inhibition of the OLC12 response
T1 sequence (Q309I4 entry or part of it): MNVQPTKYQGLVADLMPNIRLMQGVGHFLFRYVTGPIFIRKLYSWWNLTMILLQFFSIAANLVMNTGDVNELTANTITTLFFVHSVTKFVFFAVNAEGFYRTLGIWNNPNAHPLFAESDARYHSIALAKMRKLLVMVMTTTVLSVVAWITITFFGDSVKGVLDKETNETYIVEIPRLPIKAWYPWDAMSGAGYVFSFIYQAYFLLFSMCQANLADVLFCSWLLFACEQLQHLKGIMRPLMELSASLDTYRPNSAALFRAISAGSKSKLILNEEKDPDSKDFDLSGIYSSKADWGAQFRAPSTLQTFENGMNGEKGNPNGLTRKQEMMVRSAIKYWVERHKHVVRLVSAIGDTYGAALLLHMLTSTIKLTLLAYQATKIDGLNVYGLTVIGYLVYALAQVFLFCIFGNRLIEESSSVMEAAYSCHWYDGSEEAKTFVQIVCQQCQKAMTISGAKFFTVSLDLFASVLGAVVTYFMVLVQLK
Protocol: (§1) Follicle cells were removed by treatment with collagenase B (Boehringer Mannheim) for 2 hours at room temperature. Capped cRNA encoding each OR subunit was generated using mMessage mMachine kits (Ambion). For heteromeric ORs, 25 ng of cRNA encoding each OR subunit was injected into Stage V-VI Xenopus oocytes. For expression of Orco homomers, 50 ng of cRNA was injected. Oocytes were incubated at 18°C in Barth's saline (in mM: 88 NaCl, 1 KCl, 2.4 NaHCO 3, 0.3 CaNO 3, 0.41 CaCl 2, 0.82 MgSO 4, 15 HEPES, pH 7.6, and 150µg/ml ceftazidime) for 2–5 days prior to electrophysiological recording.
(§2) Odorant and Orco ligand induced currents were recorded under two-electrode voltage clamp, using an automated parallel electrophysiology system (OpusExpress 6000A, Molecular Devices). Oocytes were perfused with ND96 (in mM: 96 NaCl, 2 KCl, 1 CaCl 2, 1 MgCl 2, 5 HEPES, pH 7.5). Orco ligands were prepared as 50 or 100 mM stock solutions in DMSO and then diluted into ND96 on the day of the experiment. Odorants were prepared as 100 mM stock solutions in DMSO and then diluted into ND96. Unless otherwise noted, applications were for 60 sec at a flow rate of 1.0 ml/min, with extensive washing in ND96 at 4.6 ml/min between applications. Micropipettes were filled with 3 M KCl and had resistances of 0.2–2.0 MΩ. The holding potential was -70 mV. Current responses, filtered (4-pole, Bessel, low pass) at 20 Hz (-3 db) and sampled at 100 Hz, were captured and stored using OpusXpress 1.1 software (Molecular Devices).
(§3) To screen for agonist activity, oocytes were exposed to 30 sec applications of candidate compounds with 5 min washes between applications ( Figure 2A). For the concentration-response protocol ( Table 1), applications were for 20 sec at a flow rate of 1.65 ml/min. To measure antagonist activity at Orco ( Figure 2B, 2C, Figure 3, Figure 4A and Figure 5A), oocytes were exposed to two 60 sec applications of the synthetic Orco agonist OLC12 (2-((4-Ethyl-5-(4-pyridinyl)-4H-1,2,4-triazol-3-yl)sulfanyl)-N-(4-isopropylphenyl)acetamide) with 4 min washes between applications. Oocytes were then exposed to a 90 sec application of antagonist candidate, immediately followed by a 60 sec co-application of antagonist candidate and OLC12. The current response in the presence of antagonist candidate was compared to the mean of the preceding two responses to OLC12 alone and is presented as a percentage.
(§4) Initial analysis of electrophysiological data was done using Clampfit 9.1 software (Molecular Devices). Curve fitting and statistical analyses were done using Prism 5 (Graphpad). Concentration-inhibition data were fit to the equation: I = I max/(1+ (X/IC 50) ^n) where I represents the current response at a given concentration of inhibitor, X; I max is the maximal response in the absence of inhibitor; IC 50 is the concentration of inhibitor present that still allows a half maximal response from odorant; n is the apparent Hill coefficient. Concentration-response data were fit to the equation: I = I max/(1+(EC 50/X) ^n) where I represents the current response at a given concentration of odorant, X; I max is the maximal response; EC 50 is the concentration of agonist yielding a half maximal response; n is the apparent Hill coefficient. Statistical significance (p<0.05) was assessed using a two-tailed unpaired t test, an F test, or a one-way analysis of variance followed by the Dunnett's post-test, as appropriate.

Agam\Orco + Agam\Or31 = assay: Odorant concentration-response, two-electrode voltage clamp in Xenopus oocytes; type: cell-based, Anopheles gambiae
Protocol: as §1, §2
To screen for agonist activity, oocytes were exposed to 30 sec applications of candidate compounds with 5 min washes between applications ( Figure 2A). For the concentration-response protocol ( Table 1), applications were for 20 sec at a flow rate of 1.65 ml/min. […]
Initial analysis of electrophysiological data was done using Clampfit 9.1 software (Molecular Devices). […] Statistical significance (p<0.05) was assessed using a two-tailed unpaired t test, an F test, or a one-way analysis of variance followed by the Dunnett's post-test, as appropriate.

Agam\Orco + Agam\Or65 [2] = biological target: T2, Agam\Orco + Agam\Or65 (Anopheles gambiae, UniProt Q7QCC7); assay: Odorant and Orco agonist concentration-response, two-electrode voltage clamp in Xenopus oocytes; type: cell-based
T2 sequence (Q7QCC7 1-478): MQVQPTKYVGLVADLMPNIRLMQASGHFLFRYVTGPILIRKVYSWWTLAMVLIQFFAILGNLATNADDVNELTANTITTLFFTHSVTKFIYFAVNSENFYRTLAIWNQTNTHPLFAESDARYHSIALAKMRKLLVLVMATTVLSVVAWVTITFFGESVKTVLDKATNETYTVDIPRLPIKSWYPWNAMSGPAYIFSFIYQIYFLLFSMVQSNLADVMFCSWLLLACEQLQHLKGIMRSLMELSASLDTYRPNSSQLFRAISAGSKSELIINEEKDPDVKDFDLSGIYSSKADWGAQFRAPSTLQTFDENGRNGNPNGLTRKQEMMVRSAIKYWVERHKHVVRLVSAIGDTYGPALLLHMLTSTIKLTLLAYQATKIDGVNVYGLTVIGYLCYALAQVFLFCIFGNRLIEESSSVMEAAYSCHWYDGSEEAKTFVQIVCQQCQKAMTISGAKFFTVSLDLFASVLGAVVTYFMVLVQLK
Protocol: as §1, §2, §3, §4

Dmel\Orco = biological target: T3, Dmel\Orco (Drosophila melanogaster, UniProt Q9VNB5); assay: Agonist concentration-response, two-electrode voltage clamp in Xenopus oocytes; type: cell-based
T3 sequence (Q9VNB5 1-486): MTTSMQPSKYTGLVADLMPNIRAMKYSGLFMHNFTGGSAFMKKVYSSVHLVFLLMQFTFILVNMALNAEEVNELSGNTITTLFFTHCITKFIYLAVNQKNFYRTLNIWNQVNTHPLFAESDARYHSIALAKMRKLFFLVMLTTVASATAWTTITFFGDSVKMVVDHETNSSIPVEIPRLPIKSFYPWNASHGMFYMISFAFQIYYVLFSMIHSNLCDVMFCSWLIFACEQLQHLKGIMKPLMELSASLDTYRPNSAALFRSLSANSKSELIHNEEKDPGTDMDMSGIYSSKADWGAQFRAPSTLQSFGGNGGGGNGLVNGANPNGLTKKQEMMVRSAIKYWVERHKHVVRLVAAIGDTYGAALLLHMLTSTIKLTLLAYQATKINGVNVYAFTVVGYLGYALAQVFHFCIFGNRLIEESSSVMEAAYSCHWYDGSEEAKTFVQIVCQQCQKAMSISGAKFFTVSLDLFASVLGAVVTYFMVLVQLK
Protocol: as §1, §2, §3, §4

Onub\Orco + Onub\Or6 = Onub\Orco + Onub\Or6 (Ostrinia nubilalis, UniProt D3J5H5); assay: as above; type: cell-based
Chain of Onub\Orco + Onub\Or6 (D3J5H9 entry or part of it): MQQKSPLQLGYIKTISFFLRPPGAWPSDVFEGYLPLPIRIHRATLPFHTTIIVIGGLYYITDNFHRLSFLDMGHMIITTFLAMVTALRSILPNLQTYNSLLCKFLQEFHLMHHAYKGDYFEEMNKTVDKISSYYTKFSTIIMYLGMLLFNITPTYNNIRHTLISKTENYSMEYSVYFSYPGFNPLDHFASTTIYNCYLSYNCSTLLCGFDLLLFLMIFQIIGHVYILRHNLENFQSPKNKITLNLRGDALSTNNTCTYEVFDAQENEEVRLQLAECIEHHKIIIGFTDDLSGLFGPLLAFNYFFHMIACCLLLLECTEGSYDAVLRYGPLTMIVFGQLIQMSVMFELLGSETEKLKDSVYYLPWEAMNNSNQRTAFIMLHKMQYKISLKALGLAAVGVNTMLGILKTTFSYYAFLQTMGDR
Chain of Onub\Orco + Onub\Or6 (D3J5H5 entry or part of it): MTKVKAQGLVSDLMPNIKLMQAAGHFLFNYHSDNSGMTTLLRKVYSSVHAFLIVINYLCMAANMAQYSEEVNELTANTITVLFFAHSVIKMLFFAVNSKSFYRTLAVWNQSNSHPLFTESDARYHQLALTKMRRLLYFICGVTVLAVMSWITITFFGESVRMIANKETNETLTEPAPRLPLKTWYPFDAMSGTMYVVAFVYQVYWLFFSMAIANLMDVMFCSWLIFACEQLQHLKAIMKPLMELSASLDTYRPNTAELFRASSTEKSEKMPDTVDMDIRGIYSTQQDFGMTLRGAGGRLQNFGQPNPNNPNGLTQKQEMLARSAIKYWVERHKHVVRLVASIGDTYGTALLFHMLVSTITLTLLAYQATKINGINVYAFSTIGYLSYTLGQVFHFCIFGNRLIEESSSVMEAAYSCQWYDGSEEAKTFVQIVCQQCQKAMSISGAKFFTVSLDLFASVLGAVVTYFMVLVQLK
Protocol: as §1, §2, §3, §4

Dmel\Orco + Dmel\Or35a = biological target: T4, Dmel\Orco + Dmel\Or35a (Drosophila melanogaster, UniProt Q9VNB5); assay: as above; type: cell-based
T4 sequence (Q9VNB5 1-486): T3 sequence (Q9VNB5 1-486)
T4 sequence (Q9V3Q2 1-409 partner): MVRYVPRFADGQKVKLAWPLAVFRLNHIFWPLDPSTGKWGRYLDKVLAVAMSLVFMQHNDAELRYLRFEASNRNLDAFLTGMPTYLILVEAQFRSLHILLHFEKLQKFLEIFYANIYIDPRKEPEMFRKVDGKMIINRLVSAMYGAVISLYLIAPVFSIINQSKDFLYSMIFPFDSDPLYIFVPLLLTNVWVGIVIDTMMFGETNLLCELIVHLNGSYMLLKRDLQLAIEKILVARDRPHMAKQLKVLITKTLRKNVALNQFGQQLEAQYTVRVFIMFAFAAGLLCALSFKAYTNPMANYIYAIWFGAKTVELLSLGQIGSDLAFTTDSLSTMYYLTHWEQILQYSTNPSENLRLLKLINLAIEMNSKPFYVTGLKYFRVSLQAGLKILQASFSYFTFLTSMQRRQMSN
Protocol: as §1, §2, §3, §4

Cqui\Orco [3] = biological target: T1, Cqui\Orco; assay: as above; type: cell-based
Protocol: as §1, §2, §3, §4

Agam\Orco = biological target: T5, Agam\Orco (Anopheles gambiae, UniProt Q7QCC7); assay: as above; type: cell-based
T5 sequence (Q7QCC7 1-478): T2 sequence (Q7QCC7 1-478)
Protocol: as §1, §2, §3, §4

Agam\Orco + Agam\Or65 [4] = assay: Odorant and Orco agonist concentration-response, two-electrode voltage clamp in Xenopus oocytes; type: cell-based
Protocol: as §1, §2, §3, §4

[5] = Cqui\Orco activated by 30µM OLC12 (~EC5), 100µM of each amine, mean ± SEM, n = 3-10
[6] = normalizing conc. 30µM geranyl acetate

## NC[C@H](O)c1ccc(O)c(O)c1 [norepinephrine]
Cqui\Orco [1]; [5]
  inhibition of the OLC12 response: inactive

## NCCc1ccccc1 [phenethylamine]
Cqui\Orco [1]
  IC50: 117 ± 12 µM
Cqui\Orco [1]; Cqui\Orco activated by 30µM OLC12
  less potent than tryptamine (IC50 ratio): 25 fold
Cqui\Orco [1]; [5]
  inhibition at 100 µM: 41 ± 1%

## COc1ccc2[nH]cc(CCNC(C)=O)c2c1 [melatonin]
Cqui\Orco [1]; [5]
  inhibition at 100 µM: 13 ± 1%

## CC(=O)OC/C=C(\C)CCC=C(C)C [Geranyl Acetate, geranyl acetate]
Agam\Orco + Agam\Or31; normalized to 30µM geranyl acetate
  Fit Max: 2.9 ± 0.3
Agam\Orco + Agam\Or31; [6]
  EC50: 65 ± 23 µM
  n H (apparent Hill coefficient): 1.0 ± 0.3

## NCCc1c[nH]cn1 [Histamine, histamine]
Cqui\Orco [1]
  inhibition at 100 µM: 16 ± 8%

## NCCc1ccc(O)c(O)c1 [dopamine]
Cqui\Orco [1]
  inhibition of the OLC12 response: inactive

## CCn1c(SCC(=O)Nc2ccc(C(C)C)cc2)nnc1-c1ccncc1 [OLC12, 2-((4-Ethyl-5-(4-pyridinyl)-4H-1,2,4-triazol-3-yl)sulfanyl)-N-(4-isopropylphenyl)acetamide]
Agam\Orco + Agam\Or65 [2]; normalized to 30µM OLC12
  Fit Max: 5.7 ± 0.3
Agam\Orco + Agam\Or65 [2]; normalizing conc. 30µM OLC12
  EC50: 67 ± 6 µM
  n H (apparent Hill coefficient): 2.0 ± 0.3
Dmel\Orco; normalized to 10µM OLC12
  Fit Max: 36 ± 4
Dmel\Orco; normalizing conc. 10µM OLC12
  EC50: 36 ± 4 µM
  n H (apparent Hill coefficient): 3.9 ± 1.9
Onub\Orco + Onub\Or6
  EC50: 100 ± 4 µM
Onub\Orco + Onub\Or6; Onub\Orco + Onub\Or6, normalized to 100µM OLC12
  Fit Max: 2.0 ± 0.1
Onub\Orco + Onub\Or6; Onub\Orco + Onub\Or6, normalizing conc. 100µM OLC12
  n H (apparent Hill coefficient): 2.1 ± 0.2
Dmel\Orco + Dmel\Or35a; normalized to 10µM OLC12
  Fit Max: 4.7 ± 0.4
Dmel\Orco + Dmel\Or35a; normalizing conc. 10µM OLC12
  EC50: 20 ± 5 µM
  n H (apparent Hill coefficient): 1.9 ± 0.8
Cqui\Orco [3]; normalized to 30µM OLC12
  Fit Max: 48 ± 2
Cqui\Orco [3]; normalizing conc. 30µM OLC12
  EC50: 95 ± 6 µM
  n H (apparent Hill coefficient): 2.5 ± 0.3
Agam\Orco; normalized to 30µM OLC12
  Fit Max: 47 ± 2
Agam\Orco; normalizing conc. 30µM OLC12
  n H (apparent Hill coefficient): 2.4 ± 0.3
Agam\Orco; normalizing conc. 30µM OLC12, mean ± SEM
  EC50: 124 ± 9 µM

## NCC(O)c1ccc(O)cc1 (centres unmarked) [Octopamine, octopamine]
Cqui\Orco [1]; [5]
  inhibition of the OLC12 response: inactive

## C=CCc1ccc(O)c(OC)c1 [Eugenol, eugenol]
Agam\Orco + Agam\Or65 [4]; normalized to 1µM eugenol
  Fit Max: 1.0 ± 0.03
Agam\Orco + Agam\Or65 [4]; normalizing conc. 1µM eugenol
  EC50: 0.08 ± 0.01 µM
  n H (apparent Hill coefficient): 0.9 ± 0.1

## CN(C)Cc1c[nH]c2ccccc12 [gramine]
Cqui\Orco [1]; [5]
  inhibition at 100 µM: 30 ± 4%

## NCCc1c[nH]c2ccc(O)cc12 [serotonin]
Cqui\Orco [1]; [5]
  inhibition at 100 µM: 23 ± 3%

## CNC[C@H](O)c1ccc(O)c(O)c1 [epinephrine]
Cqui\Orco [1]
  inhibition at 100 µM: 9 ± 3%
